Experimental data taken from patent US20140180549A1, “AUTOMATED MACHINE FOR SELECTIVE IN SITU MANIPULATION OF PLANTS” (The Arizona Board of Regents on Behalf of the University of …, priority 2011, published 2014).

Tested on: Lettuce seedlings
Experiment: Comparison of automated (machine-vision spray) and hand plant thinning
Format: in vivo
Details: for Time (hand laborer with hand hoe to remove weeds and lettuce plants missed during thinning): after thinning operation; for Time (hand laborer with hand hoe to remove weeds and lettuce plants missed during thinning) / Plant Count (number of live plants per acre after thinning): letters = Duncan's groups (P = 0.05); for machine performance as compared to hand thinning / Plant Count (number of live plants per acre after thinning) / Plant Spacing (average of the measured distance to each live plant after thinning): lettuce seedlings; for machine performance as compared to hand thinning: liquid product sprayed by automated thinning machine; for Plant Count (number of live plants per acre after thinning) / Plant Spacing (average of the measured distance to each live plant after thinning): product sprayed by automated thinning machine; for Plant Spacing (average of the measured distance to each live plant after thinning): letters = Duncan's new multiple range test groups (P = 0.05)
Source text: The machine vision system used in this example is as described in Example 1, except the spray nozzles were enclosed within a “hooded” box assembly to protect sprayed treatment from wind effects.
Lettuce seedlings were thinned either using the machine vision system with the indicated treatments. The far left column lists the seven treatments tested, including hand thinning (control) and six treatments used by the automated thinning machine. Of these six, the automated thinning machine was evaluated spraying five different liquid products (two acids, two fertilizers, and one herbicide) known to kill plants and one mechanical method (knife blade—“hula hoe” design). The second column is the cost of the material sprayed for the flow rates and travel speeds used. The third column is the average of the measured distance to each live plant after thinning. The fourth column is the number of live plants per acre after thinning. The fifth column is the time required by a hand laborer to walk through the field with a hand hoe and remove weeds in the row between crop plants and any lettuce plants missed during the thinning operation.

SMILES | Time (hand laborer with hand hoe to remove weeds and lettuce plants missed during thinning) | machine performance as compared to hand thinning | Plant Count (number of live plants per acre after thinning) | Plant Spacing (average of the measured distance to each live plant after thinning)
O=S(=O)(O)O [Sulfuric Acid (10%), Sulfuric Acid] | 2.7d hr/acre | no difference | 26,758b per/acre | 10.2a inch
CC(=O)O [Acetic Acid (20%), Acetic Acid] | 3.0cd hr/acre | – | 30,181b per/acre | 8.9b inch
C[n+]1ccc(-c2cc[n+](C)cc2)cc1 [Paraquat, reference compound] | 2.8d hr/acre | no difference | 27,692b per/acre | 9.6ab inch
